In patent US10676468B2, “N-(3-heteroarylaryl)-4-arylarylcarboxamides and analogs as hedgehog pathway inhibitors and use thereof” (IMPACT Therapeutics, Inc., priority 2012, dated 2020) one finds IC50 data, which are given here for 22 compounds.

Holding throughout (format): cell-based, mouse
Test [1] has as its system Hedgehog Signaling Pathway. Nature of the test: SHH-induced differentiation of C3H10T1/2 cells into osteoblastic cells, intracellular alkaline phosphatase activity. As to conditions: 10 nM SHH-N, 5 days, alkaline phosphatase activity (OD405), read-out: IC50 values of compounds that inhibit Hh pathway. The essentials: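 Hedgehog pathway inhibition was taken as loss of SHH-driven osteoblastic differentiation. Test compound (10 nM–10 μM) plus SHH-N (10 nM) was applied to C3H10T1/2 cells for 5 days, then lysate phosphatase turnover was measured as the 30-min OD405 change at 37 °C. IC50 was fitted from activity versus log dose.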

The subject of test [2] is Hedgehog Signaling Pathway. Put plainly: SAG-induced differentiation of C3H10T1/2 cells into osteoblastic cells, intracellular alkaline phosphatase activity. As to conditions: 1 μM SAG, 5 days, alkaline phosphatase activity (OD405), read-out: IC50 values of compounds that inhibit Hh pathway. The method, boiled down:
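Mouse C3H10T1/2 cells were induced with SAG and exposed to compound (10 μM to 1 nM) for 5 days at 37 °C. Cells were lysed in 0.2% Triton, and alkaline phosphatase activity was read as OD405 over 30 min at 37 °C in pH 9.8 substrate buffer. IC50 came from a non-linear fit of background-subtracted OD405 against log concentration.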

For test [3], the system named is Hedgehog Signaling Pathway. Put plainly: Gli-Luc reporter gene cell assay in C3H10T1/2/Gli-Luc cells stimulated with Shh. The following applies: 30 nM Shh, luciferase activity (RLU), read-out: IC50 values of compounds that inhibit Hh pathway. The essentials:
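IC50 from nonlinear fit of luciferase RLU versus log compound concentration. Stably transfected C3H10T1/2/Gli-Luc cells received a 7-point compound series alongside Shh (30 nM in the added medium) for 24 h at 37 °C in DMEM/10% FBS, then were lysed for luciferase readout.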

Setting [4] is: Mus musculus, C3H 10T1/2, 120 h.

Usually IC50 stands for the concentration that gives 50% inhibition.

With `C[C@@H]1CN(c2ccc(C(=O)Nc3ccc(Cl)c(-c4ncc(-c5nccs5)[nH]4)c3)c(Cl)c2)C[C@H](C)N1C` [Example 153, N-(3-(5-(thiazol-2-yl)-1H-imidazol-2-yl)-4-chlorophenyl)-2-chloro-4-((3S,5R)-3,4,5-trimethylpiperazin-1-yl)benzamide], the IC50 in test [1] (setting [4]) was 34 nM; in test [2] (setting [4]), 280 nM; in test [3] (Mus musculus, C3H 10T1/2, 24 h) it was 8.7 nM.

In the case of `Cc1cc(-c2ccc(C(F)(F)F)cc2)ccc1C(=O)Nc1ccc(Cl)c(-c2ncc(-c3cccs3)[nH]2)c1` [Example 68, N-(3-(5-(thiophen-2-yl)-1H-imidazol-2-yl)-4-chlorophenyl)-3-methyl-4′-(trifluoromethyl)biphenyl-4-carboxamide], the IC50 in test [1] (setting [4]) was 4 nM; in test [2] (setting [4]) it was 69 nM; in test [3] (Mus musculus, C3H 10T1/2, 24 h), 9.9 nM.

Turning to `Cc1cc(N2C[C@@H](C)N(C)[C@@H](C)C2)ccc1C(=O)Nc1ccc(Cl)c(-c2ncc(-c3ccsc3)[nH]2)c1` [Example 139, N-(3-(5-(thiophen-3-yl)-1H-imidazol-2-yl)-4-chlorophenyl)-2-methyl-4-((3S,5R)-3,4,5-trimethylpiperazin-1-yl)benzamide], the IC50 worked out at 1.8 nM in test [1] (setting [4]); 44 nM in test [2] (setting [4]); 1.1 nM in test [3] (Mus musculus, C3H 10T1/2, 24 h).

For the compound `Cc1cc(-c2ccc(C(F)(F)F)cc2)ccc1C(=O)Nc1ccc(Cl)c(-c2nc3ccccc3[nH]2)c1` [Example 21, N-(3-(1H-benzo[d]imidazol-2-yl)-4-chlorophenyl)-3-methyl-4′-(trifluoromethyl)biphenyl-4-carboxamide], the IC50 in test [1] (setting [4]) came out at 2.3 nM; in test [2] (setting [4]), 30 nM; in test [3] (Mus musculus, C3H 10T1/2, 24 h) it was 5.8 nM.

As for `Cc1cc(N2C[C@@H](C)N(C)[C@@H](C)C2)ccc1C(=O)Nc1ccc(Cl)c(-c2ncc(-c3ccco3)[nH]2)c1` [Example 145, N-(3-(5-(furan-2-yl)-1H-imidazol-2-yl)-4-chlorophenyl)-2-methyl-4-((3S,5R)-3,4,5-trimethylpiperazin-1-yl)benzamide], the concentration for half-maximal inhibition (IC50) amounted to 0.93 nM in test [1] (setting [4]); 3.3 nM in test [2] (setting [4]); 0.38 nM in test [3] (Mus musculus, C3H 10T1/2, 24 h).

Regarding `Cc1cc(N2C[C@@H](C)N(C)[C@@H](C)C2)ccc1C(=O)Nc1ccc(Cl)c(-c2nc3ccc(Cl)cc3[nH]2)c1` [Example 97, N-(3-(6-chloro-1H-benzo[d]imidazol-2-yl)-4-chlorophenyl)-2-methyl-4-((3S,5R)-3,4,5-trimethylpiperazin-1-yl)benzamide], the IC50 in test [1] (setting [4]) was 0.59 nM; in test [2] (setting [4]), 32 nM; in test [3] (Mus musculus, C3H 10T1/2, 24 h), 1.7 nM.

Take `C[C@@H]1CN(c2ccc(C(=O)Nc3ccc(Cl)c(-c4nc5cccnc5[nH]4)c3)c(Cl)c2)C[C@H](C)N1C` [Example 195, N-(3-(3H-imidazo[4,5-b]pyridin-2-yl)-4-chlorophenyl)-2-chloro-4-((3S,5R)-3,4,5-trimethylpiperazin-1-yl)benzamide]: the IC50 in test [1] (setting [4]) was found to be 8.1 nM; in test [2] (setting [4]), 258 nM; in test [3] (Mus musculus, C3H 10T1/2, 24 h) it was 8.9 nM.

`Cc1cc(-c2cncnc2)ccc1C(=O)Nc1ccc(Cl)c(-c2nc3ccccc3[nH]2)c1` [Example 43, N-(3-(1H-benzo[d]imidazol-2-yl)-4-chlorophenyl)-2-methyl-4-(pyrimidin-5-yl)benzamide]: the IC50 came out at 8.5 nM in test [1] (setting [4]); 16 nM in test [2] (setting [4]); 12 nM in test [3] (Mus musculus, C3H 10T1/2, 24 h).

As to `Cc1cc(N2C[C@@H](C)N(C)[C@@H](C)C2)ccc1C(=O)Nc1cnc(C)c(-c2nc3ccccc3[nH]2)c1` [Example 88, N-(5-(1H-benzo[d]imidazol-2-yl)-6-methylpyridin-3-yl)-2-methyl-4-((3S,5R)-3,4,5-trimethylpiperazin-1-yl)benzamide], the IC50 in test [1] (setting [4]) came to 11 nM; in test [2] (setting [4]) it was 119 nM; in test [3] (Mus musculus, C3H 10T1/2, 24 h), 6.7 nM.

Regarding `COc1ncc(-c2ccc(C(=O)Nc3ccc(Cl)c(-c4nc5ccccc5[nH]4)c3)c(C)c2)cn1` [Example 39, N-(3-(1H-benzo[d]imidazol-2-yl)-4-chlorophenyl)-2-methyl-4-(2-methoxypyrimidin-5-yl)benzamide], the IC50 in test [1] (setting [4]) was 15 nM; in test [2] (setting [4]), 40 nM; in test [3] (Mus musculus, C3H 10T1/2, 24 h), 8.2 nM.

Regarding `O=C(Nc1ccc(Cl)c(-c2nc3ccccc3[nH]2)c1)c1ccc(-c2ccc(C(F)(F)F)cc2)cc1` [Example 22, N-(3-(1H-benzo[d]imidazol-2-yl)-4-chlorophenyl)-4′-(trifluoromethyl)biphenyl-4-carboxamide], the IC50 in test [1] (setting [4]) stood at 15 nM; in test [2] (setting [4]), 124 nM; in test [3] (Mus musculus, C3H 10T1/2, 24 h), 16 nM.

Regarding `C[C@@H]1CN(c2ccc(C(=O)Nc3ccc(Cl)c(-c4ncc(C(C)(C)C)[nH]4)c3)c(Cl)c2)C[C@H](C)N1C` [Example 175, N-(3-(5-tert-butyl-1H-imidazol-2-yl)-4-chlorophenyl)-2-chloro-4-((3S,5R)-3,4,5-trimethylpiperazin-1-yl)benzamide], the IC50 was 6.1 nM in test [1] (setting [4]); 176 nM in test [2] (setting [4]); 7.6 nM in test [3] (Mus musculus, C3H 10T1/2, 24 h).

`Cc1cc(-c2ccc(C#N)cc2)ccc1C(=O)Nc1ccc(Cl)c(-c2nc3ccccc3[nH]2)c1` [Example 6, N-(3-(1H-benzo[d]imidazol-2-yl)-4-chlorophenyl)-3-methyl-4′-cyanobiphenyl-4-carboxamide]: the IC50 was 2.6 nM in test [1] (setting [4]); 19 nM in test [2] (setting [4]); 3.3 nM in test [3] (Mus musculus, C3H 10T1/2, 24 h).

For the compound `C[C@@H]1CN(c2ccc(C(=O)Nc3ccc(Cl)c(-c4ncc(C5CCC5)[nH]4)c3)c(Cl)c2)C[C@H](C)N1C` [Example 180, N-(3-(5-cyclobutyl-1H-imidazol-2-yl)-4-chlorophenyl)-2-chloro-4-((3S,5R)-3,4,5-trimethylpiperazin-1-yl)benzamide], the IC50 is 9.9 nM in test [1] (setting [4]); 47 nM in test [2] (setting [4]); 2.4 nM in test [3] (Mus musculus, C3H 10T1/2, 24 h).

As to `Cc1c(C(=O)Nc2ccc(Cl)c(-c3ncc(C4CC4)[nH]3)c2)ccc(N2C[C@@H](C)N(C)[C@@H](C)C2)c1F` [Example 179, N-(3-(5-cyclopropyl-1H-imidazol-2-yl)-4-chlorophenyl)-2-methyl-3-fluoro-4-((3S,5R)-3,4,5-trimethylpiperazin-1-yl)benzamide], the IC50 stood at 0.39 nM in test [1] (setting [4]); 21 nM in test [2] (setting [4]); 0.43 nM in test [3] (Mus musculus, C3H 10T1/2, 24 h).

Take `Cc1ccc2nc(-c3cc(NC(=O)c4ccc(N5C[C@@H](C)N(C)[C@@H](C)C5)cc4Cl)ccc3Cl)[nH]c2c1` [Example 111, N-(3-(6-methyl-1H-benzo[d]imidazol-2-yl)-4-chlorophenyl)-2-chloro-4-((3S,5R)-3,4,5-trimethylpiperazin-1-yl)benzamide]: the IC50 in test [1] (setting [4]) was found to be 0.94 nM; in test [2] (setting [4]), 68 nM; in test [3] (Mus musculus, C3H 10T1/2, 24 h), 2.2 nM.

In the case of `Cc1ccc2nc(-c3cc(NC(=O)c4ccc(N5C[C@@H](C)N(C)[C@@H](C)C5)cc4C)ccc3Cl)[nH]c2c1` [Example 112, N-(3-(6-methyl-1H-benzo[d]imidazol-2-yl)-4-chlorophenyl)-2-methyl-4-((3S,5R)-3,4,5-trimethylpiperazin-1-yl)benzamide], the IC50 in test [1] (setting [4]) was 8.6 nM; in test [2] (setting [4]), 83 nM; in test [3] (Mus musculus, C3H 10T1/2, 24 h), 5.5 nM.

`Cc1ccc(-c2cnc(-c3cc(NC(=O)c4ccc(-c5ccc(C(F)(F)F)cc5)cc4C)ccc3Cl)[nH]2)cc1` [Example 77, N-(3-(5-p-tolyl-1H-imidazol-2-yl)-4-chlorophenyl)-3-methyl-4′-(trifluoromethyl)biphenyl-4-carboxamide]: the IC50 was determined as 1.9 nM in test [1] (setting [4]); 139 nM in test [2] (setting [4]); 7.1 nM in test [3] (Mus musculus, C3H 10T1/2, 24 h).

On to `Cc1nc(N2C[C@@H](C)N(C)[C@@H](C)C2)ccc1C(=O)Nc1ccc(Cl)c(-c2nc3ccccc3[nH]2)c1` [Example 116, N-(3-(1H-benzo[d]imidazol-2-yl)-4-chlorophenyl)-2-methyl-6-((3S,5R)-3,4,5-trimethylpiperazin-1-yl)nicotinamide], for which the IC50 was 2.1 nM in test [1] (setting [4]); 68 nM in test [2] (setting [4]); 1.4 nM in test [3] (Mus musculus, C3H 10T1/2, 24 h).

“N-(3-(5-(furan-2-yl)-1H-imidazol-2-yl)-4-chlorophenyl)-2-cyano-4-((3S,5R)-3,4,5-trimethylpiperazin-1-yl)benzamide [Example 147]”: the IC50 in test [1], in test [2] and in test [3] (24 hours) was greater than 10000 nM in each case.

As for `CCN1[C@H](C)CN(c2ccc(C(=O)Nc3ccc(Cl)c(-c4nc5ccccc5[nH]4)c3)c(Cl)c2)C[C@@H]1C` [Example 124, N-(3-(1H-benzo[d]imidazol-2-yl)-4-chlorophenyl)-2-chloro-4-((3S,5R)-4-ethyl-3,5-dimethylpiperazin-1-yl)benzamide], the IC50 in test [1] (setting [4]) was determined as 0.49 nM; in test [2] (setting [4]), 38 nM; in test [3] (Mus musculus, C3H 10T1/2, 24 h), 0.8 nM.

For the compound `Cc1cc(-c2ccc(C(F)(F)F)cc2)ccc1C(=O)Nc1ccc(Cl)c(-c2ncc(-c3ccccc3)[nH]2)c1` [Example 50, N-(3-(5-phenyl-1H-imidazol-2-yl)-4-chlorophenyl)-3-methyl-4′-(trifluoromethyl)biphenyl-4-carboxamide], the IC50 worked out at 7.9 nM in test [1] (setting [4]); 125 nM in test [2] (setting [4]); 10 nM in test [3] (Mus musculus, C3H 10T1/2, 24 h).
